# Measured values published in patent publication US20120029018A1, “9-SUBSTITUTED PHENANTHRENE BASED TYLOPHORINE DERIVATIVES” (priority 2008, published 2012).
# Where “and” joins values, the source holds several entries; their conditions need not be identical. Equal entries are not always repeated.
# Experiments:
# A549 (lung) = assay: In vitro anticancer activity against A549 cells; assay type: cell-based, human; conditions: for IC50 A549: A549 cells
# DU-145 (prostate) = assay: In vitro anticancer activity against DU-145 cells; assay type: cell-based, human; conditions: for IC50 DU145: DU145 cells
# KB (nasopharyngeal) = assay: In vitro anticancer activity against KB cells; assay type: cell-based, human; conditions: for IC50 KB: KB cells
# [1] = tested on: KB-VIN (an MDR KB subline); assay: In vitro anticancer activity against KB-VIN cells; assay type: cell-based, human; conditions: for IC50 KBvin: KBvin cells
# [2] = tested on: panel of human tumor cell lines including KB, A549, DU-145 and KB-VIN; assay: In vitro anticancer activity, panel as a whole; assay type: cell-based; conditions: for IC50 values across the panel: summary of Table 1
# CL1-0 = assay: Cell cycle distribution in CL1-0 cells; assay type: cell-based; as to G1 (%): test concentration or dose not given here; as to G2/M (%): test concentration or dose not given here; as to S (%): test concentration or dose not given here
# Text: (§1) The reciprocal recruitment of RelA and RelB on COX-2 promoter region led to the downregulation of transcriptional activity. […] PBT-1 may be a good drug candidate for anticancer chemotherapy.
# [3] = tested on: cyclin B1 and cyclin D1 protein; assay: Cyclin protein levels; assay type: cell-based
# Text: as §1
# [4] = tested on: panel of human tumor cell lines including KB, A549, DU-145 and KB-VIN; conditions: four human cancer cell lines including MDR KB-VIN; previous research (refs 6,7); read-out: IC50 against four types of human cancer cell lines; cited from earlier work
# [5] = tested on: apoptosis pathway, MAPK signaling, NF-κB pathway, focal adhesion; assay: DNA microarray and pathway analysis; assay type: cell-based
# Text: as §1
# lung cancer cells = assay: Colony formation of lung cancer cells in vitro; assay type: cell-based; conditions: FIG. 1, listed as PBT-1
# Text: as §1
# [6] = tested on: Akt activation, RelA (p65), NF-κB target genes; assay: Akt / NF-κB signaling (gels, FIG. 2); assay type: cell-based
# Text: as §1
smiles,measurement,setting,value
COc1ccc2c(CN3CCC(CN)CC3)cc3cc4c(cc3c2c1)OCO4.Cl.Cl [Compound 20],IC50 A549,A549 (lung),0.22 µg/mL
same,IC50 DU145,DU-145 (prostate),0.16 µg/mL
same,IC50 KB,KB (nasopharyngeal),0.12 µg/mL
COc1ccc2c(CN3CCCC(N)C3)cc3cc4c(cc3c2c1)OCO4.Cl.Cl (stereo not drawn) [Compound 10],IC50 A549,A549 (lung),3.85 µg/mL
same,IC50 DU145,DU-145 (prostate),4.20 µg/mL
same,IC50 KBvin,[1],3.88 µg/mL
same,IC50 KB,KB (nasopharyngeal),3.80 µg/mL
COc1ccc2c(CN3CCCC(CNC(=O)OC(C)(C)C)C3)cc3cc4c(cc3c2c1)OCO4 (racemic) [Compound 8],IC50 A549,A549 (lung),0.57 µg/mL
same,IC50 DU145,DU-145 (prostate),0.52 µg/mL
same,IC50 KBvin,[1],0.62 µg/mL
same,IC50 KB,KB (nasopharyngeal),0.53 µg/mL
COc1ccc2c(CN3CCCC(CO)C3)cc3cc4c(cc3c2c1)OCO4 (stereo not drawn) [Compound 23],IC50 A549,A549 (lung),0.05 µg/mL
same,IC50 DU145,DU-145 (prostate),0.06 µg/mL
same,IC50 KB,KB (nasopharyngeal),0.07 µg/mL
COc1ccc2c(CN3CCCC(NC(=O)OC(C)(C)C)C3)cc3cc4c(cc3c2c1)OCO4 (stereo not drawn) [Compound 9],IC50 A549,A549 (lung),6.77 µg/mL
same,IC50 DU145,DU-145 (prostate),8.00 µg/mL
same,IC50 KBvin,[1],8.40 µg/mL
same,IC50 KB,KB (nasopharyngeal),6.43 µg/mL
COc1ccc2c(CN3CCCC(=O)C3)cc3cc4c(cc3c2c1)OCO4 [Compound 22],IC50 A549,A549 (lung),0.29 µg/mL
same,IC50 DU145,DU-145 (prostate),0.39 µg/mL
same,"decrease of inhibitory potency, oxo group at C-3′ (15 vs. 22)",[2]; vs compound 15,about 8 fold
same,IC50 KB,KB (nasopharyngeal),0.30 µg/mL
COC(=O)C1CCCN(Cc2cc3cc4c(cc3c3cc(OC)ccc23)OCO4)C1 (stereo not drawn) [Compound 18],IC50 A549,A549 (lung),0.76 µg/mL
same,IC50 DU145,DU-145 (prostate),1.09 µg/mL
same,IC50 KBvin,[1],1.24 µg/mL
same,IC50 KB,KB (nasopharyngeal),0.79 µg/mL
COc1ccc2c(CN3CCC(=O)CC3)cc3cc4c(cc3c2c1)OCO4 [Compound 15],IC50 A549,A549 (lung),0.04 µg/mL
same,IC50 DU145,DU-145 (prostate),0.04 µg/mL
same,IC50 values across the panel,[2],~0.04 µg/mL
same,IC50 KBvin,[1],0.05 µg/mL
same,IC50 KB,KB (nasopharyngeal),0.04 µg/mL
COc1ccc2c(CN3CCC(NC(=O)OC(C)(C)C)CC3)cc3cc4c(cc3c2c1)OCO4 [Compound 11],IC50 A549,A549 (lung),0.41 µg/mL
same,IC50 DU145,DU-145 (prostate),0.43 µg/mL
same,IC50 KBvin,[1],0.49 µg/mL
same,IC50 KB,KB (nasopharyngeal),0.40 µg/mL
COc1ccc2c(CN3CCC(CO)CC3)cc3cc4c(cc3c2c1)OCO4 [Compound 1],G1 (%),"CL1-0; CL1-0, 2 Hr.",53.7%
same,G2/M (%),"CL1-0; CL1-0, 2 Hr.",25.4%
same,S (%),"CL1-0; CL1-0, 2 Hr.",15.1%
same,G1 (%),"CL1-0; CL1-0, 6 Hr.",52.5%
same,G2/M (%),"CL1-0; CL1-0, 6 Hr.",24.3%
same,S (%),"CL1-0; CL1-0, 6 Hr.",15.8%
same,G1 (%),"CL1-0; CL1-0, 12 Hr.",41.7%
same,G2/M (%),"CL1-0; CL1-0, 12 Hr.",27.0%
same,S (%),"CL1-0; CL1-0, 12 Hr.",23.9%
same,G1 (%),"CL1-0; CL1-0, 16 Hr.",20.4%
same,G2/M (%),"CL1-0; CL1-0, 16 Hr.",33.6%
same,S (%),"CL1-0; CL1-0, 16 Hr.",34.1%
same,G1 (%),"CL1-0; CL1-0, 24 Hr.",16.6%
same,G2/M (%),"CL1-0; CL1-0, 24 Hr.",20.9%
same,S (%),"CL1-0; CL1-0, 24 Hr.",43.8%
same,cell cycle arrest and apoptosis,CL1-0; Table 2,induced cell cycle G2/M arrest and apoptosis
same,IC50,"A549 (lung); Homo sapiens, A549, read-out: IC50 A549",0.07 µg/mL
same,IC50,"DU-145 (prostate); Homo sapiens, DU-145, read-out: IC50 DU145",0.09 µg/mL
same,cyclin B1 and cyclin D1 protein level,[3],accumulation in dose- and time-dependent manners
same,IC50,[4],~80 nM
same,pathways activated,[5],activated the apoptosis pathway and mitogen-activated protein kinase signaling
same,pathways suppressed,[5],suppressed the nuclear factor kappaB (NF-κB) pathway and focal adhesion
same,IC50,"[1]; Homo sapiens, KBVIN, read-out: IC50 KBvin",0.08 µg/mL
same,IC50,"KB (nasopharyngeal); Homo sapiens, KB, read-out: IC50 KB",0.07 µg/mL
same,colony formation of lung cancer cells,lung cancer cells,significantly suppressed colony formation
same,Akt activation,[6],suppress Akt activation
same,expressions of NF-κB target genes,[6],downregulate the expressions of NF-κB target genes
same,RelA (p65) degradation,[6]; via IκB kinase-α,accelerate RelA (p65) degradation
COC(=O)C1CN(Cc2cc3cc4c(cc3c3cc(OC)ccc23)OCO4)CCC1=O (racemic) [Compound 16],IC50 A549,A549 (lung),0.58 µg/mL
same,IC50 DU145,DU-145 (prostate),0.78 µg/mL
same,IC50 KBvin,[1],0.83 µg/mL
same,IC50 KB,KB (nasopharyngeal),0.53 µg/mL
COc1ccc2c(CN3CCC(CNC(=O)OC(C)(C)C)CC3)cc3cc4c(cc3c2c1)OCO4 [Compound 25],IC50 A549,A549 (lung),0.27 µg/mL
same,IC50 DU145,DU-145 (prostate),0.40 µg/mL
same,IC50 KB,KB (nasopharyngeal),0.43 µg/mL
COc1ccc2c(CN3CCC(C#N)CC3)cc3cc4c(cc3c2c1)OCO4 [Compound 14],IC50 A549,A549 (lung),0.33 µg/mL
same,IC50 DU145,DU-145 (prostate),0.41 µg/mL
same,IC50 KBvin,[1],0.43 µg/mL
same,IC50 KB,KB (nasopharyngeal),0.42 µg/mL
COc1ccc2c(CN3CCCC(CO)C3)cc3cc4c(cc3c2c1)OCO4 (stereo not drawn) [Compound 24],IC50 A549,A549 (lung),0.07 µg/mL
same,IC50 DU145,DU-145 (prostate),0.10 µg/mL
same,IC50 KB,KB (nasopharyngeal),0.07 µg/mL
COC(=O)C1CCCN(Cc2cc3cc4c(cc3c3cc(OC)ccc23)OCO4)C1 (stereo not drawn) [Compound 19],IC50 A549,A549 (lung),0.53 µg/mL
same,IC50 DU145,DU-145 (prostate),0.61 µg/mL
same,IC50 KBvin,[1],0.58 µg/mL
same,IC50 KB,KB (nasopharyngeal),0.53 µg/mL
COc1ccc2c(CN3CCC(C(F)(F)F)CC3)cc3cc4c(cc3c2c1)OCO4 [Compound 13],IC50 A549,A549 (lung),2.74 µg/mL
same,IC50 DU145,DU-145 (prostate),5.24 µg/mL
same,IC50 KBvin,[1],3.12 µg/mL
same,IC50 KB,KB (nasopharyngeal),3.88 µg/mL
COc1ccc2c(CN3CCC(O)CC3)cc3cc4c(cc3c2c1)OCO4 [Compound 21],IC50 A549,A549 (lung),0.03 µg/mL
same,IC50 DU145,DU-145 (prostate),0.04 µg/mL
same,IC50 values across the panel,[2],~0.04 µg/mL and 0.03 to 0.04 µg/mL
same,fold more active compared with compound 1,[2]; vs compound 1,about 2 fold
same,IC50 KB,KB (nasopharyngeal),0.03 µg/mL
COc1ccc2c(CN3CCC(NS(C)(=O)=O)CC3)cc3cc4c(cc3c2c1)OCO4 [Compound 17],IC50 A549,A549 (lung),0.45 µg/mL
same,IC50 DU145,DU-145 (prostate),0.45 µg/mL
same,IC50 KBvin,[1],0.48 µg/mL
same,IC50 KB,KB (nasopharyngeal),0.29 µg/mL
COc1ccc2c(CN3CCC(N)CC3)cc3cc4c(cc3c2c1)OCO4.Cl.Cl [Compound 12],IC50 A549,A549 (lung),0.16 µg/mL
same,IC50 DU145,DU-145 (prostate),0.34 µg/mL
same,IC50 KBvin,[1],0.29 µg/mL
same,IC50 KB,KB (nasopharyngeal),0.24 µg/mL
COc1ccc2c(CN3CCCC(CN)C3)cc3cc4c(cc3c2c1)OCO4.Cl.Cl (racemic) [Compound 7],IC50 A549,A549 (lung),0.28 µg/mL
same,IC50 DU145,DU-145 (prostate),0.37 µg/mL
same,IC50 KBvin,[1],0.38 µg/mL
same,IC50 KB,KB (nasopharyngeal),0.33 µg/mL
